Results from patent US9744177B2, “Treatment of male androgen deficiency symptoms or diseases with sex steroid precursor combined with SERM” (ENDORECHERCHE, INC., priority 2014, dated 2017).

Tests used:
[1] = female, Long-Evans, rat, in vivo, po, 20 mg/kg
ovariectomized mice = test: Estrogenic activity: uterine and vaginal weight in ovariectomized mice, compounds alone; format: in vivo, BALB/c mice; settings: OVX mice, no estrone; 10 μg daily oral
Procedure: Female BALB/c mice (BALB/cAnNCrlBR) weighing 18-20 g were obtained from Charles-River, Inc. (St-Constant, Quebec, Canada) and housed 5 per cage in a temperature (23±1° C.)- and light (12 h light/day, lights on at 7:15)-controlled environment. The mice were fed rodent chow and tap water ad libitum. The animals were ovariectomized (OVX) under Isoflurane anesthesia via bilateral flank incisions and randomly assigned to groups of 10 animals. Ten mice were kept intact as controls.
In the second experiment (Table 4), TSE 424 was administered orally by gavage once daily at doses of 1, 3, 10 or 30 μg/animal for 9 days, starting 2 days after ovariectomy. In both experiments, to evaluate the antiestrogenic activity, treatment with estrone (E1, 0.06 μg, s.c. injection, twice daily) was started 5 days post-ovariectomy and was administered for a 6 day-period. Compounds were dissolved in ethanol (4% final concentration) and administered in 0.4% methylcellulose. Mice in the intact and OVX control groups received the vehicle alone (4% ETOH-0.4% methylcellulose) during the 9-day period. The animals were killed by exsanguination at the abdominal aorta on the 11th morning following ovariectomy. The uteri and vagina were rapidly dissected, weighed, and kept in 10% buffered formalin for further histologic examination.

[2] = system: human breast cancer MCF-7 cells; test: Proliferation of MCF-7 cells (DNA content); format: cell-based; settings: Experiment 2
Procedure: The MCF-7 human breast adenocarcinoma cell line was derived from the pleural effusion of a patient. MCF-7 cells were used between passages 148 and 165 and subcultured weekly.
Cells in their late logarithmic growth phase were harvested with 0.1% pancreatin (Sigma) and resuspended in the appropriate medium containing 50 ng bovine insulin/mL and 5% (v/v) FBS treated twice with dextran-coated charcoal to remove endogenous steroids. Cells were plated in 24-well Falcon plastic culture plates (2 Cm^2/well) at the indicated density and allowed to adhere to the surface of the plates for 72 h. Thereafter, medium was replaced with fresh medium containing the indicated concentrations of compounds diluted from 1000× stock solutions in 99% redistilled ethanol in the presence or absence of E2. Control cells received only the ethanolic vehicle (0.1% EtOH, v/v). Cells were incubated for the specified time intervals with medium changes at 2- or 3-day intervals. Cell number was determined by measurement of DNA content.
Dose-response curves as well IC50 values were calculated using a weighted iterative nonlinear least-squares regression. All results are expressed as means±SEM.

[3] = men with serum testosterone <3.0 ng/mL after coronography; control group 15.4%; cited from earlier work
[4] = patients treated with testosterone; cited from earlier work

SMILES: CC1=C(c2ccc(OC(=O)C(C)(C)C)cc2)[C@H](c2ccc(OCCN3CCCCC3)cc2)Oc2cc(OC(=O)C(C)(C)C)ccc21 [14C-EM-800]
- total drug-derived radioactivity in the brain, detection [1]: not detected after 12 hr post dose

SMILES: Oc1ccc2c(c1)CC[C@H](c1ccccc1)[C@@H]2c1ccc(OCCN2CCCC2)cc1 [lasofoxifene (free base)]
- stimulation of uterine weight (ovariectomized mice): 93%
- stimulation of vaginal weight (ovariectomized mice): 73%
- Stimulation of DNA by tested compounds [2]: N.S.

SMILES: C[C@]12CC[C@H]3[C@@H](CCC4=CC(=O)CC[C@@]43C)[C@@H]1CC[C@@H]2O [testosterone]
- rate of deaths at 3 years [3]: 18.5%
- decrease in mortality risk [4]: 39%
- lower incidence of heart disease [4]: 20%
